Reference: publication PMC5448288 (Journal of the American Chemical Society, 2009)
Several values for one entry are separate records, joined by “and”; a condition that tells them apart may be missing. Identical values can stand only once.

Target: human indoleamine 2,3-dioxygenase (hIDO) (Homo sapiens, UniProt P14902)
Assay: steady-state dioxygenase activity of hIDO
[1] = compound as substrate, no IDE, pH 7.4, air-saturated, kcat = Vmax/[hIDO]
[2] = L-Trp reaction in the presence of 2.5 mM IDE, pH 7.4
[3] = L-Trp reaction in the presence of 5.1 mM IDE, pH 7.4

human indoleamine 2,3-dioxygenase (hIDO), sequence (P14902 whole entry): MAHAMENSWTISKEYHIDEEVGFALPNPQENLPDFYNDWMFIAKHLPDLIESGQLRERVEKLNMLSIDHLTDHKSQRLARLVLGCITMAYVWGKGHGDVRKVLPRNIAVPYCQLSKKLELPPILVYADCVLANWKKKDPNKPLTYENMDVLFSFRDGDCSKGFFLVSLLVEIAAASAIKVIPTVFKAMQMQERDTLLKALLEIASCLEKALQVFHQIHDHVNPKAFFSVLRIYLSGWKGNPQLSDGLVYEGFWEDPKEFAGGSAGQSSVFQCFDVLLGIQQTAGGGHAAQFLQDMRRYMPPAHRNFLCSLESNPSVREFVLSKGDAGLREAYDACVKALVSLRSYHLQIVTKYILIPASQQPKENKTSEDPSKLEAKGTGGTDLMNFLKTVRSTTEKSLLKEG

With N[C@H](Cc1c[nH]c2ccccc12)C(=O)O [D-Trp] the substrate inhibition (activity as a function of substrate concentration, Figure 1b) was “No substrate inhibition was observed”, the Km (compound as substrate) was 2600 µM and the “Km, fold larger as compared to the L-Trp reaction” value (compound as substrate) was 170 fold. For the same compound, the “kcat, fold faster as compared to the L-Trp reaction” value (compound as substrate) was 2 fold, the Km (compound as substrate, no IDE, pH 7.4, air-saturated) was 2600 µM and the kcat [1] was 5.9 s⁻¹ and 5.9 ± 0.3 s⁻¹.

OCCc1c[nH]c2ccccc12 [IDE, 3-Indole Ethanol] showed a Ksi [2] of 0.48 ± 0.05 mM, a kcat [2] of 3.2 ± 0.4 s⁻¹ and a Ksi [3] of 1.0 ± 0.1 mM. It also gave a kcat [3] of 3.5 ± 0.6 s⁻¹.

For N[C@@H](Cc1c[nH]c2ccccc12)C(=O)O [L-Trp, L-tryptophan], the kcat [1] was 3.1 ± 0.2 s⁻¹ and the “Ksi (self-inhibition / substrate-inhibition constant)” value (compound as substrate, no IDE, pH 7.4, fit with eq 1) was 0.17 mM and 0.17 ± 0.2 mM.

With CO[C@@]12[C@H](COC(N)=O)C3=C(C(=O)C(C)=C(N)C3=O)N1C[C@@H]1N[C@@H]12 [MtoC, Mitomycin C] the mode of inhibition (Lineweaver–Burk plot of L-Trp reaction) was “uncompetitive”.
